Data on 2 compounds can be found in patent publication EP2703003A1, “A pomegranate extract and compositions containing pomegranate polyphenols for treating or preventing diseases or physiopathological conditions associated with an excessive gene expression and/or physiological activity of interleukin-6” (Probelte Biotecnologia S.L., priority 2012, dated 2014).

Read-outs that look alike come from different tables or passages of the source.

For series [1], the system named is dermal papilla hair follicle cells. Conditions: 24 hours, 270 picog/mL at dose 0. How it is done:
In another independent study, in vitro cultures of dermal papilla hair follicle cells grown using DMEM as a culture medium were seeded at a density of 1.5 x 10^5 cells per 50 mm of plate surface and incubated overnight. Then 3 consecutive washes with PBS were performed and DMEM culture medium supplemented with variables amounts of DHT was added to each of the cultures; specifically three doses were tested: 0, 25 and 100 nanoM. The culture medium was sampled after 24 hours to measure the concentration of interleukin-6 by means of ELISA.

For series [2] the following is noted: side effect, background statement; cited from earlier work.

In the case of `C[C@]12CCC(=O)C[C@@H]1CC[C@@H]1[C@@H]2CC[C@]2(C)[C@@H](O)CC[C@@H]12` [DHT, 5-dihydrotestosterone], the “mean concentration of interleukin-6 in the culture media” value in series [1] (25 nanoM) came to 1270 picog/mL; in series [1] (100 nanoM), 2190 picog/mL.

Turning to `Nc1cc(N2CCCCC2)nc(N)[n+]1[O-]` [Minoxidil], the itchy scalp in series [2] is given as 1.5 % of patients.
